Values quoted from earlier work in Sander's compilation of Henry's law constants (doi:10.1021/je0497045).

Assay: Henry solubility constant Hcp at 298.15 K (mol/(m3 Pa))
Details: reference: Plyasunova et al. (2004); cited value

Compound | Henry solubility constant Hcp
CCCCCCCS [1-heptanethiol] | 0.00042
CCCCCS [1-pentanethiol] | 0.00087
CSSSC [2,3,4-trithiapentane] | 0.012
CCC(C)S (centres undefined) [2-butanethiol] | 0.0013
CC(C)(C)S [2-methyl-2-propanethiol] | 0.00045
CC(C)SC(C)C [di-(2-propyl)-sulfide] | 0.003
S=C=S [carbon disulfide] | 0.00055
CCCCCCS [1-hexanethiol] | 0.00052
CCCCS [1-butanethiol] | 0.0014
CC(C)CCS [3-methyl-1-butanethiol] | 0.00095
CS [methanethiol] | 0.0028
CCCS [1-propanethiol] | 0.0017

Other lines, results leading:

Henry solubility constant Hcp | Compound
0.0053 | CSC [dimethyl sulfide]
0.0047 | CCSCC [diethyl sulfide]
0.0023 | CCS [ethanethiol]
0.004 | CCSSCC [diethyl disulfide]
0.0033 | CCCSCCC [dipropyl sulfide]
0.0043 | CCCSC [methyl propyl sulfide]
0.0022 | CCCSSCCC [dipropyl disulfide]
